Source: PubChem BioAssay (NCI)
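Where inhibition never reached the appropriate level, the endpoint shown equals the highest concentration tested. Otherwise, values were interpolated linearly from a five-concentration, 48-hour dose response in 96-well plates. GI50: concentration for 50% inhibition of growth. TGI: concentration producing complete growth inhibition.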

Experiments:
Assay in all cases: NCI tumour cell line growth inhibition, 48 h
M14 melanoma = tested on: M14 melanoma
A549 NSCLC = tested on: A549 NSCLC
NCI-H460 lung = tested on: NCI-H460 lung
SF-295 CNS = tested on: SF-295 CNS
UACC-257 melanoma = tested on: UACC-257 melanoma
IGROV1 ovarian = tested on: IGROV1 ovarian
HS 578T breast = tested on: HS 578T breast
ACHN renal = tested on: ACHN renal
CCRF-CEM leukemia = tested on: CCRF-CEM leukemia
HCT-116 colon = tested on: HCT-116 colon

SMILES | TGI (M14 melanoma) [µM] | TGI (A549 NSCLC) [µM] | TGI (NCI-H460 lung) [µM] | TGI (SF-295 CNS) [µM] | TGI (UACC-257 melanoma) [µM] | TGI (IGROV1 ovarian) [µM] | TGI (HS 578T breast) [µM] | TGI (ACHN renal) [µM] | TGI (CCRF-CEM leukemia) [µM] | TGI (HCT-116 colon) [µM] | GI50 (CCRF-CEM leukemia) [µM] | GI50 (M14 melanoma) [µM] | GI50 (A549 NSCLC) [µM] | GI50 (NCI-H460 lung) [µM] | GI50 (SF-295 CNS) [µM] | GI50 (UACC-257 melanoma) [µM] | GI50 (IGROV1 ovarian) [µM] | GI50 (HS 578T breast) [µM] | GI50 (ACHN renal) [µM] | GI50 (HCT-116 colon) [µM]
COc1cc(C2SCC(=O)N2c2ccccn2)cc(OC)c1OC (stereo unspecified) | > 100 | > 100 | > 100 | > 100 | > 100 | > 100 | > 100 | > 100 | > 100 | > 100 |  |  |  |  |  |  |  |  |  | 
COC(=O)c1cc2c3c(ccc2[nH]1)N(C(=O)c1cc2cc(OC)c(OC)c(OC)c2[nH]1)CC3CCl (stereo unspecified) | > 100 | > 100 | > 100 | > 100 | > 100 | > 100 | > 100 | > 100 | > 100 | > 100 |  |  |  |  |  |  |  |  |  | 
CCCCC1=NNC(=O)C1 | > 100 | > 100 | > 100 | > 100 | > 100 | > 100 | > 100 | > 100 | > 100 | > 100 |  |  |  |  |  |  |  |  |  | 
CC(C)(C)NC(NC(C)(C)C)=C(/C=C(/Cl)[N+](=O)[O-])[N+](=O)[O-] | 92.5 | 95.3 | > 100 | > 100 | > 100 | > 100 | > 100 | > 100 | > 100 | > 100 |  |  |  |  |  |  |  |  |  | 
CC(C)(Cl)C(Br)CCC(C)(Cl)C(Br)CBr (stereo unspecified) | > 100 | > 100 | 40.5 | 46 | 51 | 65.4 | 82.9 | 52.6 | 76.9 | 47.5 |  |  |  |  |  |  |  |  |  | 
Nc1ccc(-c2nc3cc(F)ccc3s2)cc1Cl | > 100 | > 100 | 25 | > 72.3 | > 100 | 42.9 | > 90.4 | > 85 | > 100 | > 100 |  |  |  |  |  |  |  |  |  | 
CC(=O)N(C)c1ccc(Nc2cc(C)[nH]c3ccc4ncnc4c23)cc1 | 21.5 | 21.7 | 12.3 | 39.1 | 26.7 | 64.4 | 35.5 | 16.3 | 34.9 | 16.5 |  |  |  |  |  |  |  |  |  | 
Oc1cn(-c2ccc(Cl)cc2)nc1-c1nnc(-c2ccccc2)o1 | 11.7 | 31.5 | 13.8 | 4.52 | 21.6 | > 53.4 | 40.8 | 24.5 | > 100 | 1.14 | 2.46 |  |  |  |  |  |  |  |  | 
CN(Cc1cnc2nc(N)nc(N)c2n1)c1ccc(C(=O)NC(CCC(=O)NCCC(P(=O)(O)O)P(=O)(O)O)C(=O)O)cc1 (stereo unspecified) | > 100 | > 100 | > 100 | > 100 | > 100 | > 100 | > 100 | > 100 | > 100 | > 100 |  |  |  |  |  |  |  |  |  | 
Cc1cc(C)n2nc3nc(N)c(C#N)c(-c4ccccc4)c3c2n1 | > 100 | > 100 | > 100 | > 100 | > 100 | > 100 | > 100 | > 100 | > 100 | > 100 |  |  |  |  |  |  |  |  |  | 
CN(CC(=O)O)c1ncc2c(n1)-c1ccccc1SC2 | > 100 | > 100 | > 100 | > 100 | > 100 | > 100 | > 100 | > 100 | > 100 | > 100 |  |  |  |  |  |  |  |  |  | 
CCCCS(=O)CCC(N)P(=O)(O)O (stereo unspecified) | > 100 | > 100 | > 100 | > 100 | > 100 | > 100 | > 100 | > 100 | > 100 | > 100 |  |  |  |  |  |  |  |  |  | 
COc1cccc2c1OC(c1ccc(Cl)cc1)C([N+](=O)[O-])=C2 (stereo unspecified) | 2.57 | 22.5 | 4.92 | 13.4 | 8.39 | 9.19 | 13.4 | 3.28 | 4 | 2.67 |  |  |  |  |  |  |  |  |  | 
CC1=CC(C)C/C=C/C2C3OC3(C)C(C)C3C(Cc4c[nH]c5ccccc45)NC(=O)C23C(=O)C=CC(=O)C1O (stereo unspecified) | 16.8 | 26.6 | 27.6 | 27.8 | 16.4 | 24.6 | 56.5 | 2.73 | 3.02 | 8.4 |  |  |  |  |  |  |  |  |  | 
CCCCCCCCCC1(N=[N+]=[N-])C(=O)c2ccccc2N(C)C1=O (stereo unspecified) | 64.6 | 95.1 | > 100 | > 100 | > 100 | 60.7 | 83.8 | > 100 | > 100 | 75.2 |  |  |  |  |  |  |  |  |  | 
CC(=O)O[C@H]1C[C@H]2[C@@H](OC(C)=O)/C=C3\C[C@](C)(C(=O)[C@H](O)C(=C1C)C2(C)C)[C@@H](O)C[C@@H]3OC(=O)[C@H](O)[C@H](c1ccccc1)N(C)C | > 100 | > 100 | > 100 | > 100 | > 100 | > 100 | > 100 | > 100 | > 100 | > 100 |  |  |  |  |  |  |  |  |  | 
Cc1cc2c(cc1Cl)SC(NS(=O)(=O)c1ccc(Cl)cc1)=NS2(=O)=O | > 100 | > 100 | > 100 | 88.3 | > 100 | > 100 | > 100 | > 100 | > 100 | > 100 |  |  |  |  |  |  |  |  |  | 
O=C(O)CC(CC(=O)O)C(=O)O | > 100 | > 100 | > 100 | > 100 | > 100 | > 100 | > 100 | > 100 | > 100 | > 100 |  |  |  |  |  |  |  |  |  | 
O=C(O)CC1NC(/C(=C/c2ccccc2)NC(=O)c2ccccc2)OC1=O (stereo unspecified) | 35.2 | > 100 | 69.6 | > 100 | > 100 | > 100 | > 100 | > 100 | 86.6 | 42.9 |  |  |  |  |  |  |  |  |  | 
OC1[C@@H]2[C@@H](O)[C@H](O)[C@@H](O)N2C[C@@H]1O (stereo partly specified) | > 100 | > 100 | > 100 | > 100 | > 100 | > 100 | > 100 | > 100 | > 100 | > 100 |  |  |  |  |  |  |  |  |  | 
C/C(=N\NC(=S)N1CCCCC1)c1nc2ncccc2[nH]1 | 47.7 | 96.4 | 49.8 | 88.7 | 31.9 | > 100 | > 100 | > 100 | 17.2 | 22.7 |  |  |  |  |  |  |  |  |  | 
Cc1cc(C)n(C(=C(C(Cl)=C(Cl)Cl)[N+](=O)[O-])n2nc(C)cc2C)n1 | 15.5 | 11.4 | 12.7 | 14.8 | 11.5 | 14.9 | 20.6 | 8.8 | 5.8 | 14.5 |  |  |  |  |  |  |  |  |  | 
CN(C)CCCNC(=O)c1cc2[nH]c3c(cnc4ccc([N+](=O)[O-])cc43)c(=O)c2n1C | 31.1 | 32.1 | 26 | 51.4 | 39.7 | 27.7 | 41.3 | 27.9 | 30.6 | 20.1 | 14.5 | 17.3 | 17.9 | 13.3 | 26.9 | 21.2 | 12.5 | 18.1 | 14.5 | 6.8
CCOC(=O)C1=C(C)N(Cc2ccc(Cl)cc2Cl)C2(O)C=CC(=O)C3C(=O)N(c4ccccc4)C(=O)C132 (stereo unspecified) | 16 | 5.74 | 5.77 | 11.2 | 5.81 | 3.51 | 36.3 | 3.08 | 1.4 | > 100 |  |  |  |  |  |  |  |  |  | 
COC(=O)c1ccc(C(=O)NC(Cc2ccc(Oc3cc(CC(NC(=O)c4ccccc4C(=O)OC)C(=O)OC)ccc3OC)cc2)C(=O)OC)cc1 (stereo unspecified) | > 100 | > 100 | > 100 | > 100 | > 100 | > 100 | 39.3 | > 100 | > 100 | > 100 |  |  |  |  |  |  |  |  |  | 
COC(=O)CC(C#N)(OP1(=O)OC(c2ccccc2)C(C)N1C)c1ccccc1 (stereo unspecified) | > 100 | > 100 | 44.4 | > 100 | 46.4 | > 100 | > 100 | 59.8 | 38.7 | 52.4 |  |  |  |  |  |  |  |  |  | 
OC1(C(F)(F)F)OCCN=C1C(F)(F)F (stereo unspecified) | > 100 | > 100 | > 100 | > 100 | > 100 | > 100 | 81.3 | > 100 | > 100 | > 100 |  |  |  |  |  |  |  |  |  | 
CCCn1c2ccccc2c2ccc3c(c21)C(=O)C=CC3=O | > 6.11 | > 10 | > 10 | > 10 | 5.48 | > 10 | > 10 | 3.59 | 0.47 | 3.13 |  |  |  |  |  |  |  |  |  | 
N=C1/C(=C/c2ccc(F)cc2)C(=O)N=C2SC=NN12 | > 100 | > 100 | > 100 | > 100 | > 100 | > 100 | > 100 | > 100 | > 100 | > 100 |  |  |  |  |  |  |  |  |  | 
Oc1c(C2=NNC(c3ccc(Cl)cc3Cl)C2)ccc2ccccc12 (stereo unspecified) | > 100 | > 100 | > 100 | > 100 | > 100 | > 100 | > 100 | > 100 | 32.8 | > 100 |  |  |  |  |  |  |  |  |  | 
